# Data taken from patent US7208628B2, “Compositions and methods for the treatment of hepatitis C virus infection” (Kansas State University Research Foundation, priority 2002, dated 2007).
# Target: binding of HCV-E2 to CD81 on Molt4 T cells (Hepacivirus hominis (Hepatitis C virus), UniProt P27958)
# Assay: HCV-E2/CD81 binding assay on Molt4 T cells, detection with anti-E2 mAb 6F6 and flow cytometry
# Set-up: species or system human
# Details: for ability to inhibit the HCV-E2 binding to CD81, relative activity in words: structure-activity comparison of linker, side chain and ester against the valine benzyl ester I45DC AL-2-140
# Source text: Development of a Unique HCV-E2/CD81 Binding Assay. […] The binding of HCV-E2 to CD81 has been reported by several groups (see, e.g. Allander, T., et al., “Hepatitis C virus envelope protein E2 binds to CD81 of tamarins” Virology 277:358–367, 2000). Often those studies involved interactions of purified recombinant proteins. We sought to confirm published findings and to test the ability of HCV-E2 to bind to CD81 expressed on living T cells. Various concentrations of recombinant HCV-E2 (Ala 384 to Lys 715 of the HCV polyprotein produced in CHO cells; Austral Biologicals) was incubated with Molt4 T cells and binding of HCV-E2 to the cells was detected with the anti-E2 monoclonal antibody 6F6 (Austral Biologicals) followed by flow cytometry (FIG. 1). HCV-E2 binding to Molt4 T cells is concentration dependent and easily detectable at concentrations as low as 0.3 μg/mL. This binding assay differs from the assay published by Wünschmann in that the published assay used whole virus and not recombinant […] peptide. (Wünschmann, et al, “Characterization of Hepatitis C Virus (HCV) and HCV E2 Interactions with CD81 and the Low-Density Lipoprotein Receptor” J. Virology 74:10055–10062, 2000).
# Effect of I45DCs on HCV-E2 binding to CD81 on T cells. […] Binding was measured by using the novel and sensitive method of the present invention for the detection of binding between the HCV envelope protein E2 and its cellular receptor CD81 on living human T cells. This experimental approach was employed in the evaluation of a series of newly synthesized I45DCs.
# HCV-E2 was pre-incubated with or without […] of the indicated compound for 30 minutes at 37° C. prior to addition of HCV-E2 to Molt4 cells and detection as described above. […] The approximate EC50 of 19 was determined by conducting the same type of experiment in the presence of a 1:2 titration of 19 from […] (FIG. 5).
# Sequence of binding of HCV-E2 to CD81 on Molt4 T cells (P27958 384-715): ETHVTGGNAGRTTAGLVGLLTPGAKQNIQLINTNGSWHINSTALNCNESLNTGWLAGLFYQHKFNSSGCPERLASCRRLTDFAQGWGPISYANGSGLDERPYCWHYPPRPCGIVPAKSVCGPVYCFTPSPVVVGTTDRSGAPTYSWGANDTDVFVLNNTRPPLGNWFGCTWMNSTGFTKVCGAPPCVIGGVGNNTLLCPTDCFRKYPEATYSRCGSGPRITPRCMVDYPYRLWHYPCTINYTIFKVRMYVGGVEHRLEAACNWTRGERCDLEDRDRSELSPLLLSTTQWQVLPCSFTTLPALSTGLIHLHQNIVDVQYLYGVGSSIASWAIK
# Sequence of binding of HCV-E2 to CD81 on Molt4 T cells (P60033 whole entry, further chain): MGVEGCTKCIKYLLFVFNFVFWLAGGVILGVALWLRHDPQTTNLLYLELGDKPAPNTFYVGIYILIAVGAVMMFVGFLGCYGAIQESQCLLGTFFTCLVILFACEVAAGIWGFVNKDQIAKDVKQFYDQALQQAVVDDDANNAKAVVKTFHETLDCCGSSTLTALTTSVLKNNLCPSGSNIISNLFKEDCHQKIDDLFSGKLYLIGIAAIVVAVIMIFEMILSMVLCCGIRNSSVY
compound,measurement,setting,value
CCN(CCN(CC)C(=O)c1nc[nH]c1C(=O)N[C@H](C(=O)OCc1ccccc1)C(C)C)C(=O)c1nc[nH]c1C(=O)N[C@H](C(=O)OCc1ccccc1)C(C)C [Compound 19],IC50,"CD81 expressed on human T cells, 1:2 titration of compound, FIG. 5, read-out: approximate IC50 value for blocking binding of HCV-E2 to CD81",~45 µM
same,bioactivity in the HCV-E2 binding assay,HCV-E2 pre-incubated with 500 mM compound for 30 minutes at 37° C. before addition to Molt4 cells,bioactivity in the sub-millimolar range
same,"ability to inhibit the HCV-E2 binding to CD81, relative activity in words",,most active compound to date
same,"ability to inhibit the HCV-E2 binding to CD81, relative activity in words",listed as AL-2-140,most active
